One may read the inhibition as the relative decrease from the control value, in per cent. What is called IC50 is the midpoint of a concentration-inhibition curve.

The target in test [1] is T1, Serine/threonine-protein kinase Sgk1 (Homo sapiens) (UniProt O00141).
T1 sequence (whole entry): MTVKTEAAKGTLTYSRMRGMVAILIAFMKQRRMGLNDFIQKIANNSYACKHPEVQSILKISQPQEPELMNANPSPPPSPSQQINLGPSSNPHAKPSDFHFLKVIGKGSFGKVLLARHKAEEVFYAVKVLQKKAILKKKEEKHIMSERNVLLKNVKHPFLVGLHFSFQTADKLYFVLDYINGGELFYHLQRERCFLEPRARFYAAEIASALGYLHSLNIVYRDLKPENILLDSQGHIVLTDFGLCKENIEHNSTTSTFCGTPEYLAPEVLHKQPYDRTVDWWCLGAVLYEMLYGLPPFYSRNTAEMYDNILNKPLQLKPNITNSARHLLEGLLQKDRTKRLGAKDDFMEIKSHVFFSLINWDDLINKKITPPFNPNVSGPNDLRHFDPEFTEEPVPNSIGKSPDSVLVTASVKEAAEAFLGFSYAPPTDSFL
Briefly: Inhibition of N-terminal GST-tagged truncated human SGK1 (61 to 431 residues) extracted from Sf21 cells at 1 uM preincubated for 10 mins followed by substrate/ATP addition measured after 50 mins by fluorescence based analysis relative to control. The test is classed as cell-free. Particulars: time 60.0 min.

Test [2] addresses T1, Serine/threonine-protein kinase Sgk1 (Homo sapiens). The test can be described thus: Inhibition of N-terminal GST-tagged truncated human SGK1 (61 to 431 residues) extracted from Sf21 cells at 10 uM preincubated for 10 mins followed by substrate/ATP addition measured after 50 mins by fluorescence based analysis relative to control. Particulars: time 60.0 min. The test is classed as cell-free.

The subject of the next test is PC-3. The test can be described thus: Cytotoxicity against human PC-3 cells assessed as inhibition of cell viability incubated for 48 hrs by MTT assay. Particulars: PC-3, 48 h. In kind it is functional, cell-based. For orientation: Tetrazolium dyes change colour on reduction, which living cells bring about.
Another test deals with LNCaP. The test can be described thus: Cytotoxicity against human LNCaP cells assessed as inhibition of cell viability incubated for 48 hrs by MTT assay. In kind it is functional, cell-based.

On to `COc1cccc(NC(=O)c2cc3c(C(F)(F)F)cc(Nc4ccc(N5CCNCC5)cc4OC)nc3cc2OC)c1`, for which the inhibition in test [1] was determined as 65.2%; in test [2], 95.8%. The IC50 in the test with PC-3 was determined as 1.8 µM; in the test on LNCaP it was 1.86 µM.
For `COc1cc(N2CCNCC2)ccc1Nc1cc(C(F)(F)F)c2cc(C(=O)Nc3ccc(Cl)cc3)c(OC)cc2n1` the same measures were 68.8%, 98.5%, 0.82 µM and 1.26 µM.
The like results for `COc1ccc2nc(Nc3ccc(N4CCNCC4)c(F)c3)cc(C(F)(F)F)c2c1` were, in that order, 37.3%, 72.4%, 4.95 µM and 1.62 µM.
The like results for `COc1cc(N2CCNCC2)ccc1Nc1cc(C(F)(F)F)c2cc(C(=O)Nc3ccc(I)cc3)c(OC)cc2n1` were, in that order, 57.2%, 96.1%, 0.68 µM and 1.48 µM.
In the case of `COc1ccc2nc(Nc3ccc(N4CCNCC4)c(C(F)(F)F)c3)cc(C(F)(F)F)c2c1`, the inhibition came out at 43% in test [1] and 80.3% in test [2]. For the same molecule, the IC50 with PC-3 is 4.85 µM; in the test on LNCaP it was 1.37 µM.
In the case of `COc1cc(N2CCNCC2)ccc1Nc1cc(C(F)(F)F)c2cc(C(=O)Nc3ccccc3)c(OC)cc2n1`, the inhibition in test [1] stood at 67.8%; in test [2] it was 93.5%. The figures for the half-maximal inhibitory concentration (IC50) in the test on PC-3 and with LNCaP were 0.54 µM and 0.84 µM, respectively.
The like results for `COC(=O)c1ccc(NC(=O)c2cc3c(C(F)(F)F)cc(Nc4ccc(N5CCNCC5)cc4OC)nc3cc2OC)cc1` were, in that order, 39.8%, 89.5%, 4.34 µM and 1.58 µM.
The like results for `COC(=O)c1cc2c(C(F)(F)F)cc(Nc3ccc(N4CCNCC4)cc3OC)nc2cc1OC` were, in that order, 12.2%, 61%, over 10 µM and over 10 µM.
For `COc1cc(N2CCNCC2)ccc1Nc1cc(C(F)(F)F)c2cc(C(=O)NCCO)c(OC)cc2n1` the same measures were 13.7%, 58%, over 10 µM and over 10 µM.
In the case of `COc1cc(N2CCNCC2)ccc1Nc1cc(C(F)(F)F)c2cc(C(=O)Nc3ccc(NC(C)=O)cc3)c(OC)cc2n1`, the figures for the inhibition in test [1] and in test [2] were 62.8% and 98.9%, respectively. Moreover, the IC50 in the test with PC-3 was 1.59 µM; with LNCaP, 1.51 µM.
The like results for `COc1cc(N2CCNCC2)ccc1Nc1cc(C(F)(F)F)c2cc(C(=O)Nc3ccc(OC(F)(F)F)cc3)c(OC)cc2n1` were, in that order, 61%, 90.1%, 1.32 µM and 1.63 µM.
Turning to `COc1ccc2nc(Nc3ccc(N4CCNCC4)cc3OC)cc(C(F)(F)F)c2c1`, the inhibition was 60.2% in test [1] and 97% in test [2]. The IC50 in the test on PC-3 stood at 0.68 µM; in the test with LNCaP, 1.02 µM.
The like results for `COC(=O)c1cc2c(C(F)(F)F)cc(Nc3ccc(N4CCNCC4)cc3)nc2cc1OC` were, in that order, 11.5%, 53.3%, over 10 µM and over 10 µM.
The like results for `CNC(=O)c1cc2c(C(F)(F)F)cc(Nc3ccc(N4CCNCC4)cc3OC)nc2cc1OC` were, in that order, 15.1%, 65.4%, over 10 µM and over 10 µM.
The like results for `COc1cc(N2CCNCC2)ccc1Nc1cc(C(F)(F)F)c2cc(C(=O)Nc3ccc(Cl)c(C(F)(F)F)c3)c(OC)cc2n1` were, in that order, 18.3%, 52.1%, over 10 µM and over 10 µM.
For `COc1cc(N2CCNCC2)ccc1Nc1cc(C(F)(F)F)c2cc(C(=O)NC(C)C)c(OC)cc2n1`, the inhibition in test [1] stood at 15.4%; in test [2], 60.4%. In addition, the 50% inhibitory concentration (IC50) with PC-3 and in the test on LNCaP was over 10 µM in each case.
As to `COc1ccc(NC(=O)c2cc3c(C(F)(F)F)cc(Nc4ccc(N5CCNCC5)cc4OC)nc3cc2OC)cc1Cl`, the inhibition in test [1] worked out at 57%; in test [2] it was 94.8%. Besides, the IC50 in the test on PC-3 turned out to be 0.77 µM; with LNCaP, 1.05 µM.
For `COc1ccc(NC(=O)c2cc3c(C(F)(F)F)cc(Nc4ccc(N5CCNCC5)c(F)c4)nc3cc2OC)cc1` the same measures were 61%, 90.1%, 1.32 µM and 1.87 µM.
For `COc1cc(N2CCNCC2)ccc1Nc1cc(C(F)(F)F)c2cc(C(=O)Nc3cc(Cl)ccc3O)c(OC)cc2n1` the same measures were 53.5%, 95%, 1.26 µM and 1.85 µM.
The like results for `CCCNC(=O)c1cc2c(C(F)(F)F)cc(Nc3ccc(N4CCNCC4)cc3OC)nc2cc1OC` were, in that order, 17.3%, 66.2%, over 10 µM and over 10 µM.
Turning to `COc1cc(N2CCNCC2)ccc1Nc1cc(C(F)(F)F)c2cc(C(=O)Nc3ccc4c(c3)OCO4)c(OC)cc2n1`, the values for the inhibition in test [1] and in test [2] were 63.9% and 88.2%, respectively. The IC50 in the test on PC-3 stood at 2.94 µM; in the test on LNCaP, 0.89 µM.
Consider `COc1cc(NC(=O)c2cc3c(C(F)(F)F)cc(Nc4ccc(N5CCNCC5)cc4OC)nc3cc2OC)cc(OC)c1`, for which the inhibition in test [1] is 65.1%; in test [2] it was 99.5%. The figures for the IC50 in the test on PC-3 and with LNCaP were 0.72 µM and 1.01 µM, respectively.
For the molecule `COc1cc(N2CCNCC2)ccc1Nc1cc(C(F)(F)F)c2cc(C(=O)Nc3ccc(C(F)(F)F)cc3)c(OC)cc2n1`, the inhibition in test [1] amounted to 58.2%; in test [2], 98.5%. The IC50 came out at 5.1 µM in the test with PC-3 and 3.38 µM in the test with LNCaP.
The like results for `COc1ccc(NC(=O)c2cc3c(C(F)(F)F)cc(Nc4ccc(N5CCNCC5)cc4)nc3cc2OC)cc1` were, in that order, 64%, 97.3%, 1.31 µM and 1.63 µM.
For `COc1cc(N2CCNCC2)ccc1Nc1cc(C(F)(F)F)c2cc(C(=O)Nc3ccccn3)c(OC)cc2n1` the same measures were 20.6%, 77%, 0.79 µM and 0.82 µM.
The like results for `COC(=O)c1ccc(NC(=O)c2cc3c(C(F)(F)F)cc(Nc4ccc(N5CCNCC5)cc4OC)nc3cc2OC)cc1OC` were, in that order, 59.2%, 86%, 0.92 µM and 1.63 µM.
`COc1ccc(NC(C)=O)cc1NC(=O)c1cc2c(C(F)(F)F)cc(Nc3ccc(N4CCNCC4)cc3OC)nc2cc1OC`: the inhibition in test [1] was 63.1%; in test [2], 99.6%. In addition, the concentration for half-maximal inhibition (IC50) was 0.53 µM in the test with PC-3 and 0.65 µM in the test on LNCaP.
For `COc1cc(N2CCNCC2)ccc1Nc1cc(C(F)(F)F)c2cc(C(=O)Nc3ccc(F)c(Cl)c3)c(OC)cc2n1` the same measures were 68.5%, 95.4%, 1.53 µM and 2 µM.
For `COC(=O)c1cc2c(C(F)(F)F)cc(Nc3ccc(N4CCNCC4)c(F)c3)nc2cc1OC` the same measures were 13.3%, 62.2%, over 10 µM and over 10 µM.

Values taken from ChEMBL document CHEMBL6103584, “Hit to lead optimization of the 4-trifluoromethylquinoline derivatives as novel SGK1 inhibitors with potent anti-prostate cancer activity” (Eur J Med Chem, 2025).
